Like-named read-outs stand apart in the source and are kept apart here.
Tests used:
cortical neurons [1] = experiment: LDH release after 1 hr oxygen-glucose deprivation combined with acidosis; assay type: cell-based, mouse; conditions: n=8-11
Description: To determine if activation of ASICs in ischemic conditions produced greater neuronal injury, neurons from P1 ASIC1^+/+ and ASIC1^−/− mice were subjected to 1 hr acid treatment under oxygen and glucose deprivation.
(§1) Following anesthesia with halothane, cerebral cortices were dissected from PI ASIC1^+/+ and ASIC1^−/− mice and incubated with 0.05% trypsin-EDTA for 10 min at 37° C. Tissues were then triturated with fire-polished glass pipettes and plated on poly-L-ornithine-coated 24-well plates or 25×25 mm glass coverslips at a density of 2.5×10^5 cells per well or 10^6 cells per coverslip. Neurons were cultured with MEM supplemented with 10% horse serum (for E16 cultures) or Neurobasal medium supplemented with B27 (for P1 cultures) and used for electrophysiology and toxicity studies after 12 days. Glial growth was suppressed by addition of 5-fluoro-2-deoxyuridine and uridine, yielding cultured cells with ˜90% neurons as determined by NeuN and GFAP staining (data not shown).
[…]. Oxygen-glucose deprivation was terminated after 1 hr by replacing the glucose-free ECF with Neurobasal medium and incubating the cultures in a normal cell culture incubator.
Aarts et al. (2003) have recently studied ischemia molded by prolonged oxygen-glucose deprivation (2 hr) but without acidosis. […]

[2] = test system: cortical neurons cultured from ASIC+/+ and ASIC1-/- mice; experiment: LDH release in neurons cultured from ASIC+/+ and ASIC1-/- mice; assay type: cell-based, mouse; conditions: ASIC1-/- neurons, 1 hr 1 mM NMDA+10 μM glycine, Mg2+-free pH 7.4 ECF, n=4
Description: as §1
Cells were treated with either pH 7.4 or 6.0 ECF for 1 hr. LDH release was measured 24 hr after acid incubation. […] Background absorbance at 620 was subtracted.

[3] = test system: transient focal ischemia (middle cerebral artery occlusion); conditions: mouse, in vivo; for percentage of the infarct: iv
Description: Ischemia was induced by introducing a coated filament (6.0; Doccol) from the external carotid artery into the internal carotid artery and advancing it into the arterial Will's Circle, thereby occluding the middle cerebral artery (32). Rectal and temporalis muscle temperature was maintained at 37° C.±0.5° C. with a thermostatically controlled heating pad and lamp. Cerebral blood flow was monitored by transcranial laser doppler. All surgical procedures were performed under an operating stereomicroscope.

[4] = mouse, in vivo
Description: We have, therefore, measured brain pH continuously with a fiber optic pH sensor in the ipsilateral and contralateral parietal cortex of mice immediately after the removal of the middle cerebral artery suture, to determine the degree, distribution, and the time course of acidosis following focal ischemia. Cerebral pH was evaluated in sham-operated animals, in vehicle-treated animals, in PcTX venom-treated animals, and in sodium bicarbonate treated animals. Values are mean±SE (n=3 for each group).
(§2) Cerebral blood flow was monitored by transcranial laser doppler. All surgical procedures were performed under an operating stereomicroscope.
For continuous measurement of pH in the brain, a fiber optic pH micro system (pHOptica, WPI) was used. This system has a pH range between 5 and 9, and the resolution is ±0.003 units. A glass-fiber with its pH-sensitive tip ([…]) was stereotaxically implanted into the brain immediately after the middle cerebral artery occlusion at the following coordinates from the bregma: 2.4 mm laterally, 0.1 posteriorly and 2.2 mm deep. pH was continuously measured for 6 h. The instrument was calibrated with standard solutions (pH 4.0, 5.0, 6.0, 7.0, 8.0, and 9.0) before and after the experiments. […] Changes in pH values were evaluated after PcTX and NaHCO3 intracerebroventricularly or intravenous administration 2 hours after occlusion.

[5] = test system: 60 min middle cerebral artery occlusion; experiment: Mouse 60 min middle cerebral artery occlusion, memantine with or without PcTX venom, infarct volume; assay type: in vivo; conditions: n=5
[6] = test system: transient focal ischemia (middle cerebral artery occlusion); assay type: in vivo, mouse; conditions: for percentage of the infarct volume: vehicle 50.6±2.3
Description: To investigate the potential interaction between NMDA and ASIC1a blockade on infarct volume, memantine was administered before or after PcTX administration in rodents subjected to 60 min of middle cerebral artery occlusion and evaluated one day after ischemia induction.
as §2
Rodents were treated with saline, PcTX and/or memantine according to the following schedule: Saline IP administered 30 min after middle cerebral artery occlusion; PcTX 15: (0.5 μL, 500 ng/mL) administered 15 min after middle cerebral artery occlusion; Memantine 30 (1 mL, 10 mg/kg) administered 30 min after middle cerebral artery occlusion; PcTx15 min/Memantine 30, 60 120; PcTX (0.5 μL, 500 ng/mL) administration 15 min after middle cerebral artery occlusion followed by IP Memantine (1 mL, 10 mg/kg) administration 30 min, 60 min, or 120 min after PcTX. Memantinel 5/PcTx 180, 300, 360: Memantine (1 mL, 10 mg/kg) administration IP 15 min after middle cerebral artery occlusion followed by intracerebraventricular PcTX (0.5 μL, 500 ng/mL) 180 min, 300 min, or 360 min after Memantine. N=5 animals per group.
FIG. 18 is a graph presenting exemplary data from experiments measuring the percentage of brain infarct volume as a function of the time (in minutes) of administration of memantine after mid-cerebral artery occlusion, in accordance with aspects of the present teachings. Memantine's time window (1 mL, 10 mg/kg). Memantine (0.1 mL, 10 mg/kg) or saline solution (1 mL) was IP-administered 15 minutes, 1 h, or 3 h after ischemia induction. […] Each column represents the mean±SE of the percentage of the infarct compared to the ipsilateral hemisphere.

cortical neurons [7] = assay type: cell-based, mouse; conditions: preincubation 1 μM, n=6

COC(=O)[C@@H](N)CCCNC(=N)N[N+](=O)[O-] [L-NAME]
combined 1 hr oxygen-glucose deprivation/acidosis-induced neuronal injury (cortical neurons [1]; 300 μM): neither trolox (500 μM) nor L-NAME (300 μM) had significant effect

CN[C@H](CC(=O)O)C(=O)O [NMDA]
LDH release at 24 hr, % of maximal [2]: 84.8%±1.4%

O=C([O-])O.[Na+] [bicarbonate, sodium bicarbonate]
relative infarct volume [3]: 34.5±1.27%
percentage of the infarct ([3]; 2.5 mg/kg): 61.51±5.03%
percentage of the infarct ([3]; 5 mg/kg): 55.4±7.89%
brain pH value after administration [4]: 7.25±0.25
modifying brain pH ([4]; iv): less effective

CC12CC3CC(C)(C1)CC(N)(C3)C2 [memantine]
infarct volume ([5]; ASIC1-/- mice, memantine ip): 27.7±1.6 mm^3
infarct volume ([5]; ASIC+/+ mice, 10 mg/kg ip, saline 101.4±9.4): 61.6±12.7 mm^3
infarct volume ([5]; memantine 10 mg/kg ip + aCSF icv, control 123.6±5.3): 73.8±6.9 mm^3
percentage of the infarct volume ([6]; 1 mg/kg 1 h after MCAO, n=5): 55.4±5.2
percentage of the infarct volume ([6]; 10 mg/kg 1 h after MCAO, n=5): 41.0±3.4
percentage of the infarct volume ([6]; 30 mg/kg 1 h after MCAO, n=5): 43.4±3.8
survival of treated ischemic mice ([6]; 100 mg/kg, n=5, all the mice): died
infarct volume ([6]; memantine alone ip 1 h after MCAO (time window, FIG. 18), saline 50.6±2.3, n=5): 40.3±4.3%

C/C=C(/C)C(=O)O[C@H]1C(C)=C2[C@H]([C@@H]1OC(=O)CCCCCCC)[C@@](C)(OC(C)=O)C[C@H](OC(=O)CCC)[C@@]1(O)[C@H]2OC(=O)[C@@]1(C)O [thapsigargin]
sustained component of acid-induced Ca2+ increase (cortical neurons [7]): partially inhibited

Cc1c(C)c2c(c(C)c1O)CCC(C)(C(=O)O)O2 (centres unmarked) [trolox]
combined 1 hr oxygen-glucose deprivation/acidosis-induced neuronal injury (cortical neurons [1]; 500 μM): neither trolox (500 μM) nor L-NAME (300 μM) had significant effect

— patent US8030442B2, “Treatment of injury to the brain by inhibition of acid sensing ion channels” (priority 2004, dated 2011)
